Experimental data from patent publication US12551532B2, “Long-acting amylin receptor agonists and uses thereof” (Eli Lilly and Company, priority 2021, dated 2026).
Starred links: 1 amine or outer side, 2 acyl side, 3 side chain; linkers in the order of their positions; H or OH if unused. Positions of bridges follow the written chain, without caps; N, C: chain ends. Non-standard residues stand in square brackets, D forms with d. Residues, ends and D or L forms follow the SMILES beside them. Groups on a side chain read outwards from the residue. *: point of attachment. C20 diacid = O=C(O)CCCCCCCCCCCCCCCCCCC(=O)*; γGlu = O=C(O)[C@H](CCC(=O)[*:2])N[*:1]; αMeF = C[C@](N)(Cc1ccccc1)C(=O)O; NMeD = CN[C@@H](CC(=O)O)C(=O)O; NMeN = CN[C@@H](CC(N)=O)C(=O)O; Orn = NCCC[C@H](N)C(=O)O; CH2 = C([*:1])[*:2]

Legend:
[1] = tested on: CD4+ T cells; assay: T cell proliferation assay; conditions: 7-10 donors with diverse MHC
Experimental: This assay assesses the ability of tested antibodies or tested MAPPS peptides to activate CD4+ T cells by inducing cellular proliferation. CD8+ T cell depleted PBMC's are prepared and labeled with CFSE. Each sample is tested with media control, keyhole limpet haemocyanin (KLH; positive clinical benchmark control), tested antibodies, or tested MAPPS peptides. Cultures are incubated for 7 days. On day 7, samples are analyzed by flow cytometry.

[2] = Pharmacokinetics in male Sprague Dawley rats; type: in vivo; conditions: single SC 30 nmol/kg, mean; for CL/F / Tmax / half-life: rat, plasma; for CL/F / Tmax / AUCINF/D / Cmax/D: n = 3; for half-life: n = 3, read-out: T l/2 (converted)
Experimental: (§1) The pharmacokinetics of Compound II (SEQ ID NO:2), Compound IV (SEQ ID NO:4), Compound VI (SEQ ID NO:6), and Compound VIII (SEQ ID NO:8) are evaluated following a single subcutaneous administration of 30 nmol/kg to male Sprague Dawley rats. Blood samples are collected at 1, 3, 6, 12, 24, 48, 72, 96 hours post SC dose. The resulting individual plasma concentrations are used to calculate pharmacokinetic parameters. Peptide plasma (K3EDTA) concentrations are determined using a qualified LC/MS method that measured the intact mass of the peptides. Each peptide and an analog as an internal standard are extracted from plasma. A high resolution Thermo Q-Exactive is used for LC/MS detection.

[3] = Pharmacokinetics in male cynomolgus monkeys; type: in vivo; conditions: single SC 20 nmol/kg, mean; for CL/F / Tmax / half-life: male, cynomolgus monkey, plasma; for CL/F / Tmax / AUCINF/D / Cmax/D: n = 3; for half-life: n = 3, read-out: T½ (converted)
Experimental: as §1, with “20” for “30”, “cynomolgus monkeys.” for “Sprague Dawley rats.”, “120, 168, 240, 336, 408, 504” for “96”

[4] = target: T1, hAMY1R (Homo sapiens, UniProt O60894+P30988); assay: hAMY1R cAMP functional activity (HTRF); type: cell-based; conditions: ±SE; UMUC3 cells overexpressing hAMY1R; relative EC50
T1 construct: expressed in transfected cells
Experimental: The AMY1 and CT receptors are GPCRs that are functionally coupled to Gas proteins. […] In vitro activity of peptides is measured by the amount of cAMP formed in human AMY1R and CTR overexpressed cells.
Human AMY1R stable cell lines are generated by further transfecting human RAMP1-pCMVpuroPB (T14213) into UMUC3 hCTR clone cells. After selection, the mRNA levels human RAMP1 from different clones are measured to confirm the expression of human AMY1R.
hAMY1R cells are cultured in MEM 1× (Corning) supplemented with 10% FBS, 1% antibiotic/antimycotic solution, 1 mM sodium pyruvate, 1×MEM NEAA, 1× GlutaMAX-I, 200 μg/mL hygromycin B, and 0.4 μg/mL puromycin. The hCTR cells are cultured in the same medium lacking the puromycin. Cultured cells are grown to 70% confluency and then incubated overnight with fresh medium.
Peptides diluted in DMSO are added (200 nL/well) in a 1:3 dilution series using ECHO acoustic liquid handler (Beckman). Cultured cells are detached with TrypLE Express (Gibco), resuspended in assay buffer, and 10 μL containing 1200 cells/well (hCTR) or 1500 cells/well (hAMY1R) are dispensed into each well. The plates are incubated at room temperature for 1 hour.
The amount of intracellular cAMP is quantitated using HTRF technology (Homogeneous Time Resolved Fluorescence; Cisbio) as per vendor instructions. Briefly, 10 μL cAMP-d2 conjugate and 10 μL anti-cAMP-cryptate conjugate in lysis buffer are incubated with the treated cells at room temperature for 60 min. […] The raw data are converted to cAMP amount (pmol/well) using a cAMP standard curve generated for each experiment.

[5] = target: T1, hAMY1R; assay: hAMY1R competitive radioligand binding filter assay (125I-rAMY); conditions: ± SE; membranes of hAMY1R overexpressing cells
Experimental: The equilibrium dissociation constants (Kd) for the various receptor/radioligand interactions are determined from saturation binding analysis using the same reagents and buffers as described below for compound testing.
The receptor binding affinity (Ki) of rAMY, hCT, and hAMY agonist peptides are determined from a competitive radioligand binding filter assay. The assay buffer consists of (in mM) 50 HEPES, pH 7.1, 5 MgCl2, 5 KCl, 0.2% (w/v) bacitracin, 0.003% (w/v) saponin and is used to dilute radioligand and membrane preparation. Binding reactions are carried out in 0.1 mL total reaction volume in a polystyrene 96 deep-well assay block. […] Test compounds and non-specific binding (NSB—defined as 300 nM rAMY) are added to aliquots of radioactivity buffer. […] The binding reaction is initiated by the addition of 0.05 mL of 200 μg/mL hAMY1R diluted in assay buffer to the radioactivity. Assay blocks are gently vortexed, sealed with parafilm, and incubated at RT for approximately 20 hours. […] At the end of the incubation, bound ligand is separated from free by addition of an ice cold quench buffer consisting of 100 mM NaCl, 50 mM TRIS-HCl pH 7.1 and immediately collected over the filter mat by vacuum filtration with a TomTec 96 well filter harvester using the following filter protocol (Dry time, 7; Cycle 3 repeat, 0; Wash Time, 1; Soak Time, 1; 1st Aspirate Time, 4; Wash/Aspirate Time, 7; 2nd Aspirate, 4; air pressure 2 PSI).

T1 sequence (P30988 25-474): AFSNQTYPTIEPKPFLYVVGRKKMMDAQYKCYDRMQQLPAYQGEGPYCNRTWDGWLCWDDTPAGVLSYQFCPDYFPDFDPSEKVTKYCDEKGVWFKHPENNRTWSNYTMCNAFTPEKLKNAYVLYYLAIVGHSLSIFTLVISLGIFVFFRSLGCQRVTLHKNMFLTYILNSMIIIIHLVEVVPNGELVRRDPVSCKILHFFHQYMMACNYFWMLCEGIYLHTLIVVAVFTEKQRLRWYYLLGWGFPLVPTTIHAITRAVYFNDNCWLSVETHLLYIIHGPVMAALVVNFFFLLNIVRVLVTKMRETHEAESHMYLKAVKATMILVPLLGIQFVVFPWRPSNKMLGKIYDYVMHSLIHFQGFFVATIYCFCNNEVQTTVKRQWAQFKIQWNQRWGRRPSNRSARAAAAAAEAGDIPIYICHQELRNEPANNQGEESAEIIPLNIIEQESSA
T1 sequence (O60894 27-148 partner): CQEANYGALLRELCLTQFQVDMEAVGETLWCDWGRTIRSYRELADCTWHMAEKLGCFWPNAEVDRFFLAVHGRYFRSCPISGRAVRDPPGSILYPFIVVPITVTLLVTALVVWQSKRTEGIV

CL/F [2] [mL/h/kg]	Tmax [2] [h]	half-life [2] [h]	AUCINF/D [2] [hr * kg * nmol/L/nmol]	Cmax/D [2] [kg * nmol/L/nmol]	CL/F [3] [mL/h/kg]	Tmax [3] [h]	half-life [3] [h]	AUCINF/D [3] [hr * kg * nmol/L/nmol]	Cmax/D [3] [kg * nmol/L/nmol]	EC50 [4] [nM]	Ki [5] [nM]	SMILES	T Cell Proliferation Assay: protein, immunogenicity risk [1]	T Cell Proliferation Assay: protein, positive donors [1]
1.8	20 ± 6.9	66.9 ± 27.6	551 ± 27.1	5.5 ± 2.1	0.62	48 ± 24	177 ± 13.5	1607 ± 104	6.2 ± 1.0	0.107 ± 0.016	0.0296 ± 0.0099	CC(C)C[C@H](NC(=O)[C@H](CCCN)NC(=O)CNC(=O)[C@@H](NC(=O)[C@H](C)NC(=O)[C@@H]1CSCSC[C@H](NC(=O)CC[C@H](N)C(=O)O)C(=O)N[C@@H](CC(N)=O)C(=O)N[C@@H]([C@@H](C)O)C(=O)N[C@@H](C)C(=O)N[C@@H]([C@@H](C)O)C(=O)N1)[C@@H](C)O)C(=O)N[C@@H](C)C(=O)N[C@@H](CCC(=O)O)C(=O)N[C@@](C)(Cc1ccccc1)C(=O)N[C@@H](CC(C)C)C(=O)N[C@H](C(=O)N[C@@H](CCCNC(=N)N)C(=O)N[C@@H](CO)C(=O)N[C@@H](CO)C(=O)N[C@@H](CC(N)=O)C(=O)N(C)[C@@H](CC(=O)O)C(=O)N[C@@H](Cc1ccccc1)C(=O)NCC(=O)N1CCC[C@H]1C(=O)N[C@@H](CCCCNC(=O)CC[C@H](NC(=O)CC[C@H](NC(=O)CCCCCCCCCCCCCCCCCCC(=O)O)C(=O)O)C(=O)O)C(=O)N[C@@H](CC(C)C)C(=O)N1CCC[C@H]1C(=O)N1CCC[C@H]1C(=O)N[C@H](C(=O)N[C@@H](CCC(=O)O)C(=O)N[C@H](C(=O)NCC(=O)N[C@@H](CO)C(=O)N[C@@H](CC(N)=O)C(=O)N[C@H](C(=O)N[C@@H](Cc1ccc(O)cc1)C(N)=O)[C@@H](C)O)C(C)C)[C@@H](C)O)C(C)C [Compound IV, γE-CNTATCATG-Orn-LAE-αMeF-LVRSSN-NMeD-FGPKLPPTEVGSNTY-NH2] (γGlu-CNTATCATG[Orn]LAE[αMeF]LVRSSN[NMeD]FGPK([γGlu-γGlu-C20 diacid])LPPTEVGSNTY-NH2; linker 1-6 via CH2)	Low Risk	(0/9
2	24	54 ± 8.4	506 ± 26.6	5.4 ± 0.5	1.26	40 ± 13.9	85 ± 5.8	794 ± 27	4.9 ± 0.7	0.107 ± 0.015	0.0445 ± 0.0082	CC[C@H](C)[C@H](NC(=O)[C@@H]1CCCN1C(=O)CNC(=O)[C@H](Cc1ccccc1)NC(=O)[C@H](CC(=O)O)N(C)C(=O)[C@H](CC(N)=O)NC(=O)[C@H](CO)NC(=O)[C@H](CO)NC(=O)[C@H](CCCNC(=N)N)NC(=O)[C@@H](NC(=O)[C@H](CC(C)C)NC(=O)[C@](C)(Cc1ccccc1)NC(=O)[C@H](CCC(=O)O)NC(=O)[C@H](C)NC(=O)[C@H](CC(C)C)NC(=O)[C@H](CCCN)NC(=O)CNC(=O)[C@@H](NC(=O)[C@H](C)NC(=O)[C@@H]1CSCSC[C@H](NC(=O)[C@@H](N)CCCCNC(=O)CC[C@H](NC(=O)CC[C@H](NC(=O)CCCCCCCCCCCCCCCCCCC(=O)O)C(=O)O)C(=O)O)C(=O)N[C@@H](CCC(=O)O)C(=O)N[C@@H]([C@@H](C)O)C(=O)N[C@@H](C)C(=O)N[C@@H]([C@@H](C)O)C(=O)N1)[C@@H](C)O)C(C)C)C(=O)N[C@@H](CC(C)C)C(=O)N1CCC[C@H]1C(=O)N1CCC[C@H]1C(=O)N[C@H](C(=O)N[C@@H](CCC(=O)O)C(=O)N[C@H](C(=O)NCC(=O)N[C@@H](CO)C(=O)N[C@@H](CC(N)=O)C(=O)N[C@H](C(=O)N[C@@H](Cc1ccc(O)cc1)C(N)=O)[C@@H](C)O)C(C)C)[C@@H](C)O [Compound VI, KCETATCATG-Orn-LAE-αMeF-LVRSSN-NMeD-FGPILPPTEVGSNTY-NH2] (H-K([γGlu-γGlu-C20 diacid])CETATCATG[Orn]LAE[αMeF]LVRSSN[NMeD]FGPILPPTEVGSNTY-NH2; linker 2-7 via CH2)	Low Risk	(1/9
–	24	–	473 ± 63.8	4.9 ± 0.9	–	64 ± 13.9	–	1752 ± 313	6.7 ± 1.0	0.075 ± 0.012	0.017 ± 0.006	CC(C)C[C@H](NC(=O)[C@H](CCCN)NC(=O)CNC(=O)[C@@H](NC(=O)[C@H](C)NC(=O)[C@@H]1CSCSC[C@H](NC(=O)CC[C@H](N)C(=O)O)C(=O)N[C@@H](CC(N)=O)C(=O)N[C@@H]([C@@H](C)O)C(=O)N[C@@H](C)C(=O)N[C@@H]([C@@H](C)O)C(=O)N1)[C@@H](C)O)C(=O)N[C@@H](C)C(=O)N[C@@H](CCC(=O)O)C(=O)N[C@@](C)(Cc1ccccc1)C(=O)N[C@@H](CC(C)C)C(=O)N[C@H](C(=O)N[C@@H](CCCNC(=N)N)C(=O)N[C@@H](CO)C(=O)N[C@@H](CO)C(=O)N[C@@H](CC(N)=O)C(=O)N(C)[C@@H](CC(N)=O)C(=O)N[C@@H](Cc1ccccc1)C(=O)NCC(=O)N1CCC[C@H]1C(=O)N[C@@H](CCCCNC(=O)CC[C@H](NC(=O)CC[C@H](NC(=O)CCCCCCCCCCCCCCCCCCC(=O)O)C(=O)O)C(=O)O)C(=O)N[C@@H](CC(C)C)C(=O)N1CCC[C@H]1C(=O)N1CCC[C@H]1C(=O)N[C@H](C(=O)N[C@@H](CCC(=O)O)C(=O)N[C@H](C(=O)NCC(=O)N[C@@H](CO)C(=O)N[C@@H](CC(N)=O)C(=O)N[C@H](C(=O)N[C@@H](Cc1ccc(O)cc1)C(N)=O)[C@@H](C)O)C(C)C)[C@@H](C)O)C(C)C [Compound II] (γGlu-CNTATCATG[Orn]LAE[αMeF]LVRSSN[NMeN]FGPK([γGlu-γGlu-C20 diacid])LPPTEVGSNTY-NH2; linker 1-6 via CH2)	Low Risk	(0/9
